# Reference: patent US9133158B2, “Bicyclic dihydroisoquinoline-1-one derivatives” (Hoffmann-La Roche Inc., priority 2011, dated 2015)
# Legend:
# human CYP11B2 = target: T1, human CYP11B2 (Homo sapiens, UniProt P19099); assay: G-402 cellular enzyme assay, human CYP11B2 (aldosterone release, HTRF); assay type: cell-based; conditions: G-402 cells, 1 μM Deoxycorticosterone
# T1 construct: expressed in transfected cells
# T1 sequence (P19099 25-503): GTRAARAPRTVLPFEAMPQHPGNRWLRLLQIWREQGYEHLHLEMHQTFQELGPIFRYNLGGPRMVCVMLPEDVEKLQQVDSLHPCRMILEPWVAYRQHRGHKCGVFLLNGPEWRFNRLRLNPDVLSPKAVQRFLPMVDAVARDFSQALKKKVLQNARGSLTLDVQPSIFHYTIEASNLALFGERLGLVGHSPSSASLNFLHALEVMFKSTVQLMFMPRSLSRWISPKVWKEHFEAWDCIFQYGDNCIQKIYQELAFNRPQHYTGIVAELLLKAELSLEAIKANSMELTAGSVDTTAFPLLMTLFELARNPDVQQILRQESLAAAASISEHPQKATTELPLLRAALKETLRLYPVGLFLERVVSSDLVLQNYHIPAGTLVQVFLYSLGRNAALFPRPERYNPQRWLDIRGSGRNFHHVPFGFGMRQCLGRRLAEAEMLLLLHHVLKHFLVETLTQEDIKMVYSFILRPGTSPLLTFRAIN
# Method in brief: (§1)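 Steroid output from supernatants, quantified by HTRF as cortisol for CYP11B1 or aldosterone for CYP11B2, gave EC50 values by least-squares 4-parameter MMF fitting against inhibitor concentration. Stably transfected G-402 cells carrying the human enzyme received 1 μM deoxycortisol or 1 μM deoxycorticosterone respectively, 16 h, DMEM/F12 with 2.5% charcoal-stripped FCS.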
# human CYP11B1 = target: T2, human CYP11B1 (Homo sapiens, UniProt P15538); assay: G-402 cellular enzyme assay, human CYP11B1 (cortisol release, HTRF); assay type: cell-based; conditions: G-402 cells, 1 μM Deoxycortisol
# T2 construct: expressed in transfected cells
# T2 sequence (P15538 25-503): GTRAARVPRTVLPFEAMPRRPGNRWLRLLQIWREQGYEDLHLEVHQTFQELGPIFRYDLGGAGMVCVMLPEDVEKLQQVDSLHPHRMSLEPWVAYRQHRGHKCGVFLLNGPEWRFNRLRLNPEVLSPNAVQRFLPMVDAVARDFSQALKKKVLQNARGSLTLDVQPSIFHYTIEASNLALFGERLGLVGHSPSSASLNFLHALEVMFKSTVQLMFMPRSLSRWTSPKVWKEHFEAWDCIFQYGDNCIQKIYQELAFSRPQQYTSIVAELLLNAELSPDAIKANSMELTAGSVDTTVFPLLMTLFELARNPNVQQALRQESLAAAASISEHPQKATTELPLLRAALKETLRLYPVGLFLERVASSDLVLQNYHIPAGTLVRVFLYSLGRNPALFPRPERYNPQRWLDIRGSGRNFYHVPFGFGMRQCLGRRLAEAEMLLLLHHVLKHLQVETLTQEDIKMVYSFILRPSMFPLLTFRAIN
# Method in brief: as §1
Structure (SMILES),EC50 (human CYP11B2) [nM],EC50 (human CYP11B1) [nM]
"CC(c1cncc(N2CCc3cc(Cl)ccc3C2=O)c1)n1ccnc1 (centres unmarked) [Example 270, 6-Chloro-2-[5-(1-imidazol-1-yl-ethyl)-pyridin-3-yl]-3,4-dihydro-2H-isoquinolin-1-one]",6.3,27.9
"CC(c1cncc(N2CCc3cc(Cl)ccc3C2=O)c1)n1cccn1 (centres unmarked) [Example 271, 6-Chloro-2-[5-(1-pyrazol-1-yl-ethyl)-pyridin-3-yl]-3,4-dihydro-2H-isoquinolin-1-one]",24.8,251
"CC(Nc1ncco1)c1cncc(N2CCc3cc(Cl)ccc3C2=O)c1 (centres unmarked) [Example 272, 6-Chloro-2-{5-[1-(oxazol-2-ylamino)-ethyl]-pyridin-3-yl}-3,4-dihydro-2H-isoquinolin-1-one]",60.4,210
"CC(c1cncc(N2CCc3cc(Cl)ccc3C2=O)c1)n1cncn1 (centres unmarked) [Example 273, 6-Chloro-2-[5-(1-[1,2,4]triazol-1-yl-ethyl)-pyridin-3-yl]-3,4-dihydro-2H-isoquinolin-1-one]",64,449
"CC(c1cncc(N2CCc3cc(Cl)ccc3C2=O)c1)N1CCCC1=O (centres unmarked) [Example 274, 6-Chloro-2-{5-[1-(2-oxo-pyrrolidin-1-yl)-ethyl]-pyridin-3-yl}-3,4-dihydro-2H-isoquinolin-1-one]",128,1050
"CC(c1cncc(N2CCc3cc(Cl)ccc3C2=O)c1)N1CCOC1=O (centres unmarked) [Example 275, 6-Chloro-2-{5-[1-(2-oxo-oxazolidin-3-yl)-ethyl]-pyridin-3-yl}-3,4-dihydro-2H-isoquinolin-1-one]",731,7820
"CC(NS(C)(=O)=O)c1cncc(N2CCc3cc(Cl)ccc3C2=O)c1 (centres unmarked) [Example 276, N-{1-[5-(6-Chloro-1-oxo-3,4-dihydro-1H-isoquinolin-2-yl)-pyridin-3-yl]-ethyl}-methanesulfonamide]",284,2030
"CC(Nc1cccc(F)c1)c1cncc(N2CCc3cc(Cl)ccc3C2=O)c1 (centres unmarked) [Example 277, 6-Chloro-2-{5-[1-(3-fluoro-phenylamino)-ethyl]-pyridin-3-yl}-3,4-dihydro-2H-isoquinolin-1-one]",64.1,163
"CC(Nc1ccccc1)c1cncc(N2CCc3cc(Cl)ccc3C2=O)c1 (centres unmarked) [Example 278, 6-Chloro-2-[5-(1-phenylamino-ethyl)-pyridin-3-yl]-3,4-dihydro-2H-isoquinolin-1-one]",6.1,34.4
"C[S+]([O-])c1cncc(N2CCc3cc(Cl)ccc3C2=O)c1 (centres unmarked) [Example 279, 6-Chloro-2-(5-methanesulfinyl-pyridin-3-yl)-3,4-dihydro-2H-isoquinolin-1-one]",600,11100
"Cn1cc(Cc2cncc(N3C(=O)c4ccc(Cl)cc4C3(C)C)c2)cn1 [Example 281, 5-Chloro-3,3-dimethyl-2-[5-(1-methyl-1H-pyrazol-4-ylmethyl)-pyridin-3-yl]-2,3-dihydro-isoindol-1-one]",0.4,3
"CCC1c2cc(Cl)ccc2C(=O)N1c1cncc(OC(F)F)c1 (centres unmarked) [Example 282, 5-Chloro-2-(5-difluoromethoxy-pyridin-3-yl)-3-ethyl-2,3-dihydro-isoindol-1-one]",42.9,475
"CCC1c2cc(Cl)ccc2C(=O)N1c1cncc(C(C)O)c1 (centres unmarked) [Example 283, 5-Chloro-3-ethyl-2-[5-(1-hydroxy-ethyl)-pyridin-3-yl]-2,3-dihydro-isoindol-1-one]",66.7,633
"CCC1c2cc(Cl)ccc2C(=O)N1c1cnccc1Cl (centres unmarked) [Example 284, 5-Chloro-2-(4-chloro-pyridin-3-yl)-3-ethyl-2,3-dihydro-isoindol-1-one]",20.5,249
"CC1(C)c2cc(Cl)ccc2C(=O)N1c1cnccc1Cl [Example 285, 5-Chloro-2-(4-chloro-pyridin-3-yl)-3,3-dimethyl-2,3-dihydro-isoindol-1-one]",7.6,356
"O=C1c2ccc(Cl)cc2CCN1c1cncc2cccc([N+](=O)[O-])c12 [Example 286, 6-Chloro-5′-nitro-3,4-dihydro-[2,4′]biisoquinolinyl-1-one]",265,3040
"O=C1c2ccc(Cl)cc2CCN1c1cncc2c([N+](=O)[O-])cccc12 [Example 287, 6-Chloro-8′-nitro-3,4-dihydro-[2,4′]biisoquinolinyl-1-one]",555,6410
"Nc1cccc2c(N3CCc4cc(Cl)ccc4C3=O)cncc12 [Example 288, 8′-Amino-6-chloro-3,4-dihydro-[2,4′]biisoquinolinyl-1-one]",539,8870
"CCS(=O)(=O)Nc1cccc2c(N3CCc4cc(Cl)ccc4C3=O)cncc12 [Example 289, Ethanesulfonic acid (6-chloro-1-oxo-3,4-dihydro-1H-[2,4′]biisoquinolinyl-8′-yl)-amide]",70.6,186
"O=C1c2ccc(Cl)cc2C2(CC2)N1c1cncc(F)c1 [Example 290, 6′-Chloro-2′-(5-fluoropyridin-3-yl)spiro[cyclo-propane-1,1′-isoindol]-3′(2′H)-one]",101,3910
"O=C1c2ccc(Cl)cc2C2(CC2)N1c1cncc(OC(F)F)c1 [Example 291, 6′-Chloro-2′-[5-(difluoromethoxy)pyridin-3-yl]spiro[cyclo-propane-1,1′-isoindol]-3′(2′H)-one]",3.2,122
"CC1(C)c2nc(Cl)ccc2C(=O)N1c1cncc(F)c1 [Example 292, 2-Chloro-6-(5-fluoro-pyridin-3-yl)-7,7-dimethyl-6,7-dihydro-pyrrolo[3,4-b]pyridin-5-one]",515,36200
"CC1(C)c2nc(Cl)ccc2C(=O)N1c1cncc(OC(F)F)c1 [Example 293, 2-Chloro-6-(5-difluoromethoxy-pyridin-3-yl)-7,7-dimethyl-6,7-dihydro-pyrrolo[3,4-b]pyridin-5-one]",16.4,285
"COc1ccc2c(n1)C(C)(C)N(c1cncc(F)c1)C2=O [Example 294, 6-(5-Fluoro-pyridin-3-yl)-2-methoxy-7,7-dimethyl-6,7-dihydro-pyrrolo[3,4-b] pyridin-5-one]",204,9850
"COc1ccc2c(n1)C(C)(C)N(c1cncc(OC(F)F)c1)C2=O [Example 295, 6-(5-Difluoromethoxy-pyridin-3-yl)-2-methoxy-7,7-dimethyl-6,7-dihydro-pyrrolo[3,4-b] pyridin-5-one]",48.8,849
"O=C1c2ccc(Cl)cc2C2(CC2)N1c1cccnc1 [Example 296, 6′-Chloro-2′-(pyridin-3-yl)spiro[cyclopropane-1,1′-isoindol]-3′(2′H)-one]",132,4500
"O=C1c2ccc(Cl)cc2C(C2CC2)N1c1cncc(F)c1 (centres unmarked) [Example 297, 5-Chloro-3-cyclopropyl-2-(5-fluoro-pyridin-3-yl)-2,3-dihydro-isoindol-1-one]",207,12800
"CC1(C)c2nc(Cl)ccc2C(=O)N1c1cccnc1 [Example 298, 2-Chloro-7,7-dimethyl-6-pyridin-3-yl-6,7-dihydro-pyrrolo[3,4-b]pyridin-5-one]",175,13700
